Measurements published in patent US9352013B2, “Uses of bremelanotide in therapy for female sexual dysfunction” (Palatin Technologies, Inc., priority 2012, dated 2016).

Key:
Type in all cases: in vivo, human
[1] = test system: premenopausal and postmenopausal women with FSAD; experiment: Phase 2 intranasal trials in women with FSAD: efficacy and adverse events
Method: In the bremelanotide premenopausal arm, 42.5% of the subjects were discontinued due to hypertension, nausea, vomiting or myalgia. Subjects received a 10 mg intranasal dose of bremelanotide, with premenopausal subjects determined to have a mean plasma concentration of 88.5±51.9 ng/mL and a % CV of 58.6, and postmenopausal subjects determined to have a mean plasma concentration of 93.2±68.5 ng/mL and a % CV of 73.5. The minimum and maximum plasma concentration levels for all women at thirty minutes post dose range from 0.0 ng/mL to 207.0 ng/mL.
Results with premenopausal women in a placebo-controlled, randomized, double-blind, parallel group, at-home exploratory study to evaluate the efficacy and safety of intranasally administered bremelanotide in subjects with female sexual arousal disorder (FSAD) were compared against results in the study of Example 1. In the intranasal study, a total of 76 premenopausal subjects were randomized, with 40 subjects to receive bremelanotide and 36 to receive placebo. Twenty-two subjects treated with bremelanotide and 29 treated with placebo completed the study, with 16 subjects who received bremelanotide (40%) discontinuing from the study due to an adverse event. This compares to the study of Example 1, in which as shown by Table 6 only 8% of subjects on the 1.75 mg subcutaneous dose discontinuing due to an adverse event.

[2] = test system: premenopausal females with FSAD and/or HSDD; experiment: Example 1: placebo-controlled at-home trial of subcutaneous bremelanotide, efficacy (SSEs, FSFI, FSDS-DAO)
Method: A multi-centered, placebo-controlled, randomized, parallel group trial with fixed dose levels and designed to identify appropriate doses of bremelanotide administered by subcutaneous injection in premenopausal females with FSAD and/or HSDD, under the conditions of home use, was conducted. Subjects received a single dose of placebo (subject-blinded) in-clinic followed by 4 weeks of subject-blinded placebo treatment at home (subjects self-administered treatment as needed). Subjects who continued to qualify for the trial then received 2 single in-clinic doses of randomized treatment (double-blind; approximately one week apart), followed by 12 weeks of double-blind treatment at home (subjects self-administered treatment as needed).
Subjects were randomized (1:1:1:1) to one of four study treatment groups (placebo or doses with 0.75, 1.25, or 1.75 mg net weight bremelanotide). Randomization occurred immediately prior to the first in-clinic dose of double-blind treatment. Study drug and placebo was provided as pre-filled syringes in 0.3 mL volume, with subjects instructed on self-administration into the anterior thigh or abdomen.
Enrolled subjects were premenopausal women who met the diagnostic criteria for FSAD, HSDD, or mixed FSAD/HSDD, utilizing a diagnostic screening guide including categorization of the sexual dysfunction as both acquired (vs. lifelong) and generalized (vs. situational). Subjects enrolled had previously been sexually “functional;” that is, experienced sexual arousal during sexual activity and/or a normal level of desire at some point in the past for a period of at least 2 years.
Enrolled subjects were provided with an electronic diary system (eDiary) with instructions to complete an FSEP-R questionnaire with each sexual encounter. At selected in-clinic visits, subjects completed other assessment questionnaires, including SIDI-F, FSDS-DAO, FSFI, GAQ and WITS-9. In addition, various vital sign measures were conducted and blood and urine samples collected at selected in-clinic visits.
The measurement period was defined as the number of events during the last four weeks of treatment minus the number of events during the baseline period, with outcomes reported for pooled results of women taking the two highest bremelanotide dose levels versus placebo.
The FSFI is a 19-item questionnaire which provides for an additional measurement of changes over a longer recall period. • FSFI total score improvement (mean change of 3.55 vs. 1.88, p=0.0017) • Reduced associated distress related to sexual dysfunction, as measured by the Female Sexual Distress Scale-DAO (FSDS-DAO). The FSDS-DAO 15-item questionnaire is designed to assess and quantify the change in personal distress associated with FSD. • FSDS-DAO total score improvement (mean change of −11.1 vs. −6.8, p=0.036).

[3] = test system: healthy adult female subjects; experiment: Phase 1 dose escalation, subcutaneous: vaginal photoplethysmography (vaginal pulse amplitude)
Method: In a double-blind, placebo-controlled, single dose, dose escalation Phase 1 study to determine the maximum tolerated dose in healthy adult female subjects, doses of from 0.3 to 5.0 mg (0.3, 1.0, 3.0 and 5.0 mg) of bremelanotide were administered by subcutaneous injection. However, this study specifically excluded women with a diagnosis of FSD, and thus could not determine an effective dose for treatment of FSD. The study did employ a measure of pharmacodynamic effect, defined as an increase of sexual arousal response in the presence of visual sexual stimulation as measured by vaginal blood flow with vaginal photoplethysmography (using a Geer gauge device), which measures vaginal pulse amplitude.

[4] = Adverse events with single-dose SC administration (Trials-14, -06, -10)
Method: Subcutaneous dosing was tested in 5 Phase 1 trials (3 in females, 2 in males) and one Phase 2 trial (males). The most common adverse events associated with single-dose SC bremelanotide administration (Trials-14, -06, and -10) were somnolence (30%), flushing (15%), nausea (19%), and vomiting (10%).

[5] = Single SC doses in male subjects with ED and preexisting hypertension: tolerability; conditions: single subcutaneous doses of 4 and 6 mg

SMILES: CCCC[C@H](NC(C)=O)C(=O)N[C@H]1CC(=O)NCCCC[C@@H](C(=O)O)NC(=O)[C@H](Cc2c[nH]c3ccccc23)NC(=O)[C@H](CCCNC(=N)N)NC(=O)[C@@H](Cc2ccccc2)NC(=O)[C@H](Cc2c[nH]cn2)NC1=O [bremelanotide, Ac-Nle-cyclo(-Asp-His-D-Phe-Arg-Trp-Lys)-OH]
- Subjects reporting at least one adverse event ([1]; 10 mg intranasal, postmenopausal, placebo 47.7%): 100%
- Subjects discontinuing from the study due to an adverse event ([1]; 10 mg intranasal, premenopausal, 16 of 40 subjects): 40%
- Sexual desire and arousal compared to placebo ([1]; intranasal, premenopausal and postmenopausal women with FSAD): increase sexual desire and arousal compared to placebo
- Frequency of Satisfying Sexual Events (SSEs), mean at end of study ([2]; pooled 1.25 mg and 1.75 mg SC, from 1.6 at baseline, placebo 1.7 to 1.9): 2.4
- FSFI total score improvement, mean change from baseline to end of study ([2]; pooled 1.25 mg and 1.75 mg SC, placebo 1.88): 3.55
- FSDS-DAO total score improvement, mean change from baseline to end of study ([2]; pooled 1.25 mg and 1.75 mg SC, placebo −6.8): −11.1
- Increase in SSEs ([2]; pooled 1.25 mg and 1.75 mg SC, versus 12% with placebo): 50%
- Efficacy in premenopausal women with FSDs ([2]; self-administered at home at 1.25 and 1.75 mg SC): effective in decreasing distress, increasing arousal and desire, and increasing the number of SSEs
- Percentage of women with end-of-study FSFI and FSDS-DAO total score levels above 26.5 and 18 ([2]; versus placebo, exploratory analysis): higher percentage
- Pharmacodynamic effect (vaginal pulse amplitude with visual sexual stimulation) ([3]; 0.3 or 1.0 mg SC, compared to placebo or baseline): no apparent pharmacodynamic effect
- Pharmacodynamic effect (vaginal pulse amplitude with visual sexual stimulation) ([3]; 3 and 5 mg SC): statistically significant pharmacodynamic effect
- Subcutaneous dose at which a pharmacodynamics effect was seen ([3]; normal female volunteers): ≥ 3 mg
- Adverse event: flushing [4]: 15%
- Adverse event: nausea [4]: 19%
- Adverse event: somnolence [4]: 30%
- Adverse event: vomiting [4]: 10%
- Tolerability [5]: improved tolerability
